Measured values: US8383607B2, “Perifosine and capecitabine as a combined treatment for cancer” (AEterna Zentaris GmbH, priority 2011, dated 2013)
Like-named read-outs stand apart in the source and are kept apart here.

What was measured:
[1] = cited from earlier work; for time of peak blood level after administration: after capecitabine administration
[2] = test system: Advancing colorectal cancer (ACRC); Metastatic colorectal cancer (MCRC); settings: cited from earlier work
[3] = test system: refractory advanced colorectal cancer; test: Phase I clinical study: safety of 50 mg perifosine daily with 1000 mg/m^2 capecitabine twice per day; settings: first dose perifosine vs perifosine for eleven days
Procedure: A Phase I clinical study was performed for evaluating the safety of 50 mg perifosine daily in combination with 1000 mg/m^2 capecitabine twice per day in patients with refractory advanced colorectal cancer. During a 21 day cycle, perifosine was administered every day, whereas capecitabine was administered orally on days 1-14 of the cycle.
The study was performed on patients having 3rd line or higher metastatic colorectal cancer, with no prior exposure to perifosine, and who had received, or were not candidates for, regimens containing 5-fluorouracil, oxaliplatin, irinotecan, bevacizumab, and cetuximab or panitumumab. The patients had at least one measurable lesion, as well as adequate bone marrow, liver and renal function.
Toxicity was graded according to the NCI CTCAE version 3.0, and dose limiting toxicity was defined as any of the following: […]
a) Grade 3 non-hematological toxicity except alopecia, which is not reversible Grade 2 or less within 96 hours; or
Physical examination (including vital signs, weight and ECOG performance score) was performed prior to initiation of the treatment, and on day 1 (±3 days) of every cycle thereafter. Adverse event evaluations were monitored and reported promptly.

[4] = test system: metastatic colorectal cancer; test: Phase II randomized placebo-controlled expanded study: perifosine with capecitabine vs capecitabine alone; format: in vivo, human
Procedure: As outlined above, the randomized placebo-controlled study was performed in order to evaluate the effects of perifosine in combination with various cytotoxic agents (i.e., gemcitabine, paclitaxel, docetaxel, doxorubicin, capecitabine, pemetrexed, irinotecan and pegylated liposomal doxorubicin) and to determine if co-administering perifosine and each of these cytotoxic agents results in synergy, and if such synergy overcomes resistance to chemotherapy in cancer cells.
The study was performed on patients having breast cancer, non-small cell lung cancer, colorectal cancer, prostate cancer, ovarian cancer, head and neck cancer or soft tissue sarcoma, who had received at least one prior chemotherapy regimen. The prior regimen must have been different than the single agent administered in this study. Each patient received a single agent chemotherapy regimen which was judged by a physician as likely to be as beneficial to the patient as any other available therapy.
Patients received either 50 mg perifosine or placebo daily in combination with single-agent chemotherapy.
Capecitabine: 825 mg/m^2 twice per day (i.e., 1650 mg/m^2 per day) on days 1-14 every 3 weeks, administered orally (used to treat breast, colorectal, head and neck, prostate, and ovarian cancers);
The time to progression (TTP) was a primary endpoint for the various treatment groups. Overall survival (OS) rates and overall response rates (ORR) of the patients and the proportion of progression-free patients were secondary endpoints. In addition, the safety of the combined treatments was also evaluated.
Progression and response (complete response or partial response) were determined according to RECIST 1.0 criteria.
The Kaplan-Meier method was used to calculate times to progression and overall survival. Median values of the TTP and OS were calculated, as well as the confidence intervals (CI) of the TTP and OS at a 95% confidence level. P-values were calculated for the differences between different treatments.
Safety of treatments was assessed by monitoring adverse events, which were graded according to the NCI CTCAE version 3.0.

[5] = test system: breast cancer, non-small cell lung cancer, colorectal cancer, prostate cancer, ovarian cancer, head and neck cancer or soft tissue sarcoma; test: Phase II portion: perifosine or placebo with single-agent chemotherapy regimens; format: in vivo, human; settings: 50 mg perifosine or placebo daily with single-agent chemotherapy
Procedure: The prior regimen must have been different than the single agent administered in this study. Each patient received a single agent chemotherapy regimen which was judged by a physician as likely to be as beneficial to the patient as any other available therapy. […] The single-agent chemotherapy regimens were as follows: Paclitaxel: 175 mg/m^2 every 3 weeks or 80 mg/m^2 on days 1, 8 and 15 every 4 weeks, by intravenous infusion over 1 to 3 hours (used to treat breast, prostate and lung cancers); Docetaxel: 75 mg/m^2 every 3 weeks or 35 mg/m^2 on days 1, 8 and 15 every 4 weeks, by intravenous infusion over 1 hour (used to treat head and neck, lung, ovarian and prostate cancers); Gemcitabine: 1000 mg/m^2 on days 1 and 8 every 3 weeks, by infusion over 30 minutes (used to treat sarcoma and lung, ovarian, breast and head and neck cancers); Doxorubicin: 60 mg/m^2 every 3 weeks, by infusion over 30 minutes (used to treat sarcoma and prostate, ovarian, and breast cancers); Pegylated liposomal doxorubicin: 40 mg/m^2 every 4 weeks, by infusion over 30 minutes (used to treat sarcoma and ovarian and breast cancers); Capecitabine: 825 mg/m^2 twice per day (i.e., 1650 mg/m^2 per day) on days 1-14 every 3 weeks, administered orally (used to treat breast, colorectal, head and neck, prostate, and ovarian cancers); Pemetrexed: 500 mg/m^2 every 3 weeks, by intravenous infusion over 10 minutes (used to treat lung and colorectal cancers); and Irinotecan: 100 mg/m^2 on days 1, 8 and 15 every 4 weeks, by intravenous infusion over 90 minutes (used to treat sarcoma and colorectal and lung cancers). The time to progression (TTP) was a primary endpoint for the various treatment groups. Overall survival (OS) rates and overall response rates (ORR) of the patients and the proportion of progression-free patients were secondary endpoints. In addition, the safety of the combined treatments was also evaluated. […] The Kaplan-Meier method was used to calculate times to progression and overall survival. Median values of the TTP and OS were calculated, as well as the confidence intervals (CI) of the TTP and OS at a 95% confidence level. P-values were calculated for the differences between different treatments.

[6] = 2x daily 1250 mg/m2 (total 2500 mg/m2), MCRC, Asia-Pac J Clin Oncol. 2011, 82-87
[7] = 2x daily 1000-1250 mg/m2, ACRC, Acta Oncologica, 2005, 44: 236-239
[8] = 7 patients 2x daily 1250 mg/m2, after toxicity dose diluted to 1000 mg/m2, ACRC, Anticancer Res. 26: 1669-1672 (2006)
[9] = 5-FU-refractory metastatic colorectal cancer patients, listed as capecitabine alone
[10] = 5-FU-refractory metastatic colorectal cancer patients, listed as placebo+capecitabine
[11] = after 12 weeks, 5-FU refractory evaluable patients (14 combination, 11 capecitabine alone)
[12] = after 12 weeks, evaluable metastatic colorectal cancer patients (20 combination, 15 capecitabine alone)
[13] = all metastatic colorectal cancer patients, 50 mg perifosine or placebo daily + capecitabine 1650 mg/m^2 per day days 1-14 every 21 days

O=c1[nH]cc(F)c(=O)[nH]1 [5-fluorouracil]
time of peak blood level after administration [1]: 2 h

CCCCCOC(=O)Nc1nc(=O)n([C@@H]2O[C@H](C)[C@@H](O)[C@H]2O)cc1F [capecitabine]
time of peak blood level after administration [1]: about 1.5 hours | effect of food on capecitabine absorption ([1]; in vivo): reduces both the rate and extent | elimination half-life ([1]; in vivo): about ¾ | Median OS [2, 6]: 5.3 months | Median TTP [2, 6]: 2.3 months | Median OS [2, 7]: 6.1 mos. | Median TTP [2, 7]: 2.8 mos. | Median OS [2, 8]: 5.2 mos. | Median TTP [2, 8]: 4 mos. | PK parameters for capecitabine or its metabolites, Cycle 1 Day 1 vs Cycle 1 Day 11 [3]: no statistically significant differences | Median OS ([4]; 5-FU refractory): 6.6 mo. for 5-FU | Median TTP ([4]; 5-FU refractory): 10 weeks for 5-FU | median overall survival (OS) [4, 9]: 6.8 months | median time to progression (TTP) [4, 9]: 10 weeks | median overall survival (OS) [4, 10]: 6.6 months | median time to progression (TTP) [4, 10]: 11 weeks | Grade 3 and 4 adverse events: anemia ([4]; NCI CTCAE version 3.0): 0% | Grade 3 and 4 adverse events: hand/foot syndrome ([4]; NCI CTCAE version 3.0): 0% | patients who achieved stable disease (progression-free for 3 months or greater) [4, 11]: 3 | patients with partial response [4, 11]: none | proportion of patients who achieved stable disease [4, 11]: 27% | patients who achieved stable disease (progression-free for 3 months or greater) [4, 12]: 6 | patients with partial response [4, 12]: 1 | proportion of patients who achieved stable disease [4, 12]: 40% | patients with complete response ([4]; after 12 weeks, evaluable metastatic colorectal cancer patients (20 combination, 15 capecitabine alone), RECIST 1.0): none | median overall survival (OS) [4, 13]: 10.9 months | median time to progression (TTP) [4, 13]: 11 weeks | Median OS ([4]; all patients): refractory; 10.9 mo. | Median TTP ([4]; all patients): refractory; 11 weeks | patients who discontinued treatment due to an adverse event ([4]; in vivo): 2

CC(=O)O[C@@]12CO[C@@H]1C[C@H](O)[C@@]1(C)C(=O)[C@H](O)C3=C(C)[C@@H](OC(=O)[C@H](O)[C@@H](NC(=O)OC(C)(C)C)c4ccccc4)C[C@@](O)([C@@H](OC(=O)c4ccccc4)[C@H]21)C3(C)C [docetaxel]
beneficial effect of perifosine (improvement in combination with perifosine) in subjects receiving the chemotherapeutic agent [5]: not to occur

COc1cccc2c1C(=O)c1c(O)c3c(c(O)c1C2=O)C[C@@](O)(C(=O)CO)C[C@@H]3O[C@H]1C[C@H](N)[C@H](O)[C@H](C)O1 [doxorubicin]
beneficial effect of perifosine (improvement in combination with perifosine) in subjects receiving the chemotherapeutic agent [5]: not to occur

Nc1ccn([C@@H]2O[C@H](CO)[C@@H](O)C2(F)F)c(=O)n1 [gemcitabine]
beneficial effect of perifosine (improvement in combination with perifosine) in subjects receiving the chemotherapeutic agent [5]: not to occur

CCc1c2c(nc3ccc(OC(=O)N4CCC(N5CCCCC5)CC4)cc13)-c1cc3c(c(=O)n1C2)COC(=O)[C@]3(O)CC [irinotecan]
beneficial effect of perifosine (improvement in combination with perifosine) in subjects receiving the chemotherapeutic agent [5]: not to occur

CC(=O)O[C@H]1C(=O)[C@@]2(C)[C@H]([C@H](OC(=O)c3ccccc3)[C@]3(O)C[C@H](OC(=O)[C@H](O)[C@@H](NC(=O)c4ccccc4)c4ccccc4)C(C)=C1C3(C)C)[C@]1(OC(C)=O)CO[C@@H]1C[C@@H]2O [paclitaxel]
beneficial effect of perifosine (improvement in combination with perifosine) in subjects receiving the chemotherapeutic agent [5]: not to occur

Nc1nc2[nH]cc(CCc3ccc(C(=O)N[C@@H](CCC(=O)O)C(=O)O)cc3)c2c(=O)[nH]1 [pemetrexed]
beneficial effect of perifosine (improvement in combination with perifosine) in subjects receiving the chemotherapeutic agent [5]: not to occur
